Laboratory results from patent publication US20210276967A1 (OSPEDALE SAN RAFFAELE S.R.L., priority 2018, published 2021).
Values joined by “and” are separate entries in the source; they are usually repeats but may differ in a detail not shown here. Identical values can stand only once. Like-named read-outs stand apart in the source and are kept apart here.

Test: Mouse PK studies (plasma and liver exposure)
Type: in vivo, C57BL/6 mice
Parameters: Liver [mM]: unit not given here
Conditions: for Plasma concentrations / concentration at 24 h / concentration at 8 h / concentration at 0.25 h / concentration at 0.5 h / concentration at 1 h / concentration at 2 h / concentration at 4 h / concentration at 6 h: PO 100 mpk in 0.5% methocell; for AUC(0-t): read-out: AUC (0-24 h); for AUC: read-out: AUC Extrap
Excerpt: C57BL/6 mice are used to evaluate plasma and liver exposure and pharmacokinetic parameters after intravenous and oral administration (from 2 to 200 mpk according to the compound tested and the administration route). 12 (+3 spare) healthy C57BL/6N male mice are obtained from Charles River S.p.A. Calco (Como), Italy. Animals are ordered weighing 21 to 27 grams and approximately 7 weeks old. Before and during testing, animals are housed in Individual Ventilated Cages (IVCs Tecniplast) with sawdust as bedding (three animals for cage). Cages are identified by a color code label recording the sample ID, animal number and details of treatment (route, dose and sex). Animals are identified by unique number on tail via permanent marker. Animal room controls are set to maintain temperature within the range from 20 to 24° C. and relative humidity within the range from 40 to 70% and an average daily airflow of at least 10 fresh air changes per hour. Actual conditions are recorded. The room is lit by fluorescent tubes controlled to give an artificial cycle of 12 hours light and 12 hours dark each day. All animals are weighed immediately before testing. Animals are dosed IV in a fed state and PO in a fasted state.
Compounds (from 0.4 to 20 mg/mL according to the compound tested and the administration route) are dissolved in DMSO/PEG400/H2O (20/60/20) for IV administration and 0.5% Methocel E50 or 20% Hydroxypropyl-β-cyclodextrin (HP-β-CD) in citrate buffer pH=5 for PO administration. The appropriate dose volume of the test item, calculated for each animal according to body weight (administration volume: 5 mL/kg for IV or 5 mL/kg or 10 mL/kg for PO), is administered by injection into lateral tail vein using 2.5 mL syringe (BD Plasipak) for IV administration and administered orally by gavage using 5 mL Syringe (BD Plastipak) for PO administration. Whole blood sample (about 0.200 mL) is collected via retro orbital sinus using Isoflurane as anesthetic. Blood is collected in Li-Heparin Sartsted® gel tubes appropriately labeled indicating animal number and time point. Tubes are put in wet ice and then centrifuged within 15 minutes from blood collection. Centrifugation is performed using a Heraeus Multifuge® 3S/3S-R set, at 2200×g for 10 minutes, internal temperature is kept at 4° C. After the centrifugation, about 100 μL of plasma samples are obtained and immediately transferred to 1.5 mL Eppendorf tubes and frozen at −20° C. (24/24 h alarmed). Whole blood samples are collected at different times point (0-0.25-0.5-1-2-4-6-8-24 hours) after dosing and kept frozen (−20° C.) until assayed by LC/MS/MS. Livers are explanted at different time point (0-8-24 hours), washed with saline solution, transferred to Eppendorf tubes and frozen at −80° C. until assayed by LC/MS/MS. Analytical procedures: Plasma samples are extracted using Liquid Handling Robot Hamilton StarPlus by protein precipitation with acetonitrile. Then the samples are centrifuged (3000 rpm×15 min at 4° C.) and the supernatant transferred and dried under nitrogen. The samples are reconstituted in water/acetonitrile 90/10 or 50/50 and then injected directly into an UPLC column. Sample analyses are performed using an API 4000 or/and API 5000 or/and API 4000QTrap Mass Spectrometer interfaced via the Turbo Ion Spray (ESI) to an LC system consisting of an Acquity UPLC Sample Manager autosampler and Acquity UPLC Binary Solvent Manager Pump. The results are calculated using Analyst Software linear regression with 1/x*x weighting. The Assay Precision is calculated for the Quality Controls by Watson Lims database.
Cmax is the maximum compound concentration from oral dosing; Tmax is the time at which Cmax is reached; AUC (0-24) is the area under the concentration vs time curve from 0 to 24 hours; AUC extrap is the area under the curve (AUC) extrapolated to infinity, from dosing time based on the last observed concentration. […]

[1] = male, C57BL/6N, mouse, plasma, po, 100 mg/kg, plasma, PO 100 mg/kg in 0.5% methocell, mice, Mean
[2] = male, C57BL/6N, mouse, plasma, po, 100 mg/kg, plasma, PO 100 mg/kg in 0.5% methocell, mice, individual subject
[3] = plasma, PO 100 mg/kg in 0.5% methocell, mice, individual subject, 100 mg/kg

## Nc1ccc(C(=O)Nc2cc(F)c(F)c(F)c2)cc1S(N)(=O)=O [Example E3, 4-amino-3-sulfamoyl-N-(3,4,5-trifluorophenyl)benzamide]
0.25 Hours, individual subject, 100 mg/kg
  Plasma concentrations: 5.05 µM and 3.95 µM
0.5 Hours, individual subject, 100 mg/kg
  Plasma concentrations: 7.23 µM and 10.6 µM
1 Hours, individual subject, 100 mg/kg
  Plasma concentrations: 17.2 µM and 9.61 µM
2 Hours, individual subject, 100 mg/kg
  Plasma concentrations: 10.7 µM and 17.0 µM
4 Hours, individual subject, 100 mg/kg
  Plasma concentrations: 11.2 µM and 10.6 µM
6 Hours, individual subject, 100 mg/kg
  Plasma concentrations: 10.5 µM and 9.06 µM
8 Hours, individual subject, 100 mg/kg
  Plasma concentrations: 10.4 µM and 12.1 µM
8 Hours, individual subject, 100 mg/kg, read-out: Liver concentrations
  concentration at 24 h: 125.87 µM and 119.96 µM
24 Hours, individual subject, 100 mg/kg
  Plasma concentrations: 0.268 µM and 0.184 µM and 0.0502 µM
24 Hours, individual subject, 100 mg/kg, read-out: Liver concentrations
  concentration at 24 h: 0.6272 µM and 3.0342 µM and 1.8500 µM
male, C57BL/6N, mouse, liver, 100 mpk, 8 h after PO administration, read-out: liver levels higher than plasma (ratio liver/plasma concentration)
  Kp at 8 h: 13
male, C57BL/6N, mouse, liver, po, 100 mg/kg, 8 Hours, Mean, read-out: Liver concentrations
  concentration at 8 h: 129 µM
male, C57BL/6N, mouse, liver, po, 100 mg/kg, 8 Hours, individual subject, read-out: Liver concentrations
  concentration at 8 h: 143 µM
male, C57BL/6N, mouse, liver, po, 100 mg/kg, 24 Hours, Mean, read-out: Liver concentrations
  concentration at 24 h: 2 µM
male, C57BL/6N, mouse, plasma, po, 100 mg/kg, 0.25 Hours, Mean, read-out: Plasma concentrations
  concentration at 0.25 h: 5 µM
male, C57BL/6N, mouse, plasma, po, 100 mg/kg, 0.25 Hours, individual subject, read-out: Plasma concentrations
  concentration at 0.25 h: 6.15 µM
male, C57BL/6N, mouse, plasma, po, 100 mg/kg, 0.5 Hours, Mean, read-out: Plasma concentrations
  concentration at 0.5 h: 9 µM
male, C57BL/6N, mouse, plasma, po, 100 mg/kg, 0.5 Hours, individual subject, read-out: Plasma concentrations
  concentration at 0.5 h: 7.77 µM
male, C57BL/6N, mouse, plasma, po, 100 mg/kg, 1 Hours, Mean, read-out: Plasma concentrations
  concentration at 1 h: 12 µM
male, C57BL/6N, mouse, plasma, po, 100 mg/kg, 1 Hours, individual subject, read-out: Plasma concentrations
  concentration at 1 h: 10.2 µM
male, C57BL/6N, mouse, plasma, po, 100 mg/kg, 2 Hours, Mean, read-out: Plasma concentrations
  concentration at 2 h: 14 µM
male, C57BL/6N, mouse, plasma, po, 100 mg/kg, 2 Hours, individual subject, read-out: Plasma concentrations
  concentration at 2 h: 13 µM
male, C57BL/6N, mouse, plasma, po, 100 mg/kg, 4 Hours, Mean, read-out: Plasma concentrations
  concentration at 4 h: 11 µM
male, C57BL/6N, mouse, plasma, po, 100 mg/kg, 4 Hours, individual subject, read-out: Plasma concentrations
  concentration at 4 h: 10.9 µM
male, C57BL/6N, mouse, plasma, po, 100 mg/kg, 6 Hours, Mean, read-out: Plasma concentrations
  concentration at 6 h: 10 µM
male, C57BL/6N, mouse, plasma, po, 100 mg/kg, 6 Hours, individual subject, read-out: Plasma concentrations
  concentration at 6 h: 11.9 µM
male, C57BL/6N, mouse, plasma, po, 100 mg/kg, 8 Hours, Mean, read-out: Plasma concentrations
  concentration at 8 h: 10 µM
male, C57BL/6N, mouse, plasma, po, 100 mg/kg, 8 Hours, individual subject, read-out: Plasma concentrations
  concentration at 8 h: 9.01 µM
male, C57BL/6N, mouse, plasma, po, 100 mg/kg, 24 Hours, Mean, read-out: Plasma concentrations
  concentration at 24 h: 0.2 µM
male, C57BL/6N, mouse, plasma, po, 100 mg/kg, PO 100 mg/kg in 0.5% methocell, mice, Mean
  Cmax: 16 µM
male, C57BL/6N, mouse, plasma, po, 100 mg/kg, PO 100 mg/kg in 0.5% methocell, mice, individual subject
  Cmax: 17.2 µM
[1]
  AUC(0-t): 172 µM·h
  AUC: 173 µM·h
male, C57BL/6N, mouse, plasma, po, 100 mg/kg, plasma, PO 100 mg/kg in 0.5% methocell, mice, Mean, read-out: Tmax
  Tmax: 1.7 h
[2]
  AUC(0-t): 171 µM·h
  AUC: 172 µM·h
male, C57BL/6N, mouse, plasma, po, 100 mg/kg, plasma, PO 100 mg/kg in 0.5% methocell, mice, individual subject, read-out: Tmax
  Tmax: 1 h
male, C57BL/6N, mouse, plasma, mice, read-out: in vivo clearance
  clearance: 10 mL/min/kg
[3]
  AUC (0-24 h): 186 µM·h and 160 µM·h
  AUC Extrap: 186.4 µM·h and 161.7 µM·h
  Cmax: 17 µM and 13 µM
  Tmax: 2.00 h

## Cc1cc(N)c(S(N)(=O)=O)cc1C(=O)Nc1cc(F)c(F)c(F)c1 [Example E17, 4-amino-2-methyl-5-sulfamoyl-N-(3,4,5-trifluorophenyl)benzamide]
PO 25 mg/kg in 0.5% methocell, mice
  Liver [mM]: 317
PO 75 mg/kg in 0.5% methocell, mice
  Liver [mM]: 747
PO 150 mg/kg in 0.5% methocell, mice
  Liver [mM]: 677
male, C57BL/6N, mouse, liver, PO 25 mg/kg in 0.5% methocell, mice
  Kp: 15.9
male, C57BL/6N, mouse, liver, PO 75 mg/kg in 0.5% methocell, mice
  Kp: 14.4
male, C57BL/6N, mouse, liver, PO 150 mg/kg in 0.5% methocell, mice
  Kp: 13.8
